Assay results published in patent US6737383B1, “Herbicidal oxadiazolidines” (priority 1999, dated 2004).

Legend:
bedstraw = assay: Test B pre/postemergence bedstraw; assay type: in vivo, Galium aparine; settings: Preemergence
Procedure, shortened: (§1)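 Herbicidal effect was estimated by eye on a ten-point control scale after plants spent twelve to sixteen days in a greenhouse following soil or foliar treatment. Foliar sprays targeted plants at one to four leaves; all doses were formulated in a non-phytotoxic solvent with surfactant.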

blackgrass = assay: Test B pre/postemergence blackgrass; assay type: in vivo, Alopecurus myosuroides
Procedure, shortened: as §1

surinam grass = assay: Test B pre/postemergence surinam grass; assay type: in vivo, Brachiaria decumbens; settings: for Plant response rating, B. signalgrass: scale of 0 to 10 where 0 is no effect and 10 is complete control
Procedure, shortened: as §1

cocklebur = assay: Test B pre/postemergence cocklebur; assay type: in vivo, Xanthium strumarium
Procedure, shortened: as §1

corn = assay: Test B pre/postemergence corn; assay type: in vivo, Zea mays
Procedure, shortened: as §1

crabgrass = assay: Test B pre/postemergence crabgrass; assay type: in vivo, Digitaria sanguinalis
Procedure, shortened: as §1

giant foxtail = assay: Test B pre/postemergence giant foxtail; assay type: in vivo, Setaria faberii
Procedure, shortened: as §1

morningglory = assay: Test B pre/postemergence morningglory; assay type: in vivo, Ipomoea hederacea
Procedure, shortened: as §1

pigweed = assay: Test B pre/postemergence pigweed; assay type: in vivo, Amaranthus retroflexus; settings: for Plant response rating, Redroot pigweed: Postemergence
Procedure, shortened: as §1

rape = assay: Test B pre/postemergence rape; assay type: in vivo, Brassica napus
Procedure, shortened: as §1

soybean = assay: Test B pre/postemergence soybean; assay type: in vivo, Glycine max; settings: for Plant response rating, Soybean: Postemergence
Procedure, shortened: as §1

sugar beet = assay: Test B pre/postemergence sugar beet; assay type: in vivo, Beta vulgaris
Procedure, shortened: as §1

velvetleaf = assay: Test B pre/postemergence velvetleaf; assay type: in vivo, Abutilon theophrasti; settings: for Plant response rating, Velvetleaf: Postemergence
Procedure, shortened: as §1

wheat = assay: Test B pre/postemergence wheat; assay type: in vivo, Triticum aestivum; settings: for Plant response rating, Wheat: Postemergence
Procedure, shortened: as §1

wild oat = assay: Test B pre/postemergence wild oat; assay type: in vivo, Avena fatua; settings: for Plant response rating, Wild oats: Postemergence
Procedure, shortened: as §1

purple nutsedge = assay: Test B pre/postemergence purple nutsedge; assay type: in vivo, Cyperus rotundus; settings: for Nutsedge plant response rating: Rate 125 g/ha, scale 0 to 10, 0 is no effect, 10 is complete control
Procedure, shortened: as §1

[1] = Rate 500 g/ha, scale of 0 to 10 where 0 is no effect and 10 is complete control
[2] = Postemergence, Rate 62 g/ha, scale of 0 to 10, 0 is no effect, 10 is complete control
[3] = Postemergence, Rate 125 g/ha, scale 0 to 10, 0 is no effect, 10 is complete control
[4] = Postemergence, Rate 500 g/ha, scale of 0 to 10 where 0 is no effect and 10 is complete control
[5] = Preemergence, Rate 62 g/ha, scale 0 to 10 (0 no effect, 10 complete control)
[6] = Preemergence, Rate 125 g/ha, scale 0 to 10, 0 is no effect, 10 is complete control
[7] = Preemergence, Rate 500 g/ha, scale of 0 to 10 where 0 is no effect and 10 is complete control
[8] = Rate 250 g/ha, Postemergence, scale of 0 to 10 where 0 is no effect and 10 is complete control
[9] = Rate 250 g/ha, scale of 0 to 10 where 0 is no effect and 10 is complete control

C=CCCCn1c(=O)on(C(=O)N(c2ccccc2)C(C)C)c1=O [Compound 575]
Bedstraw plant response rating (bedstraw; Rate 62 g/ha, scale 0 to 10 (0 no effect, 10 complete control)): 0 | Bedstraw plant response rating (bedstraw; Rate 125 g/ha, scale 0 to 10, 0 is no effect, 10 is complete control): 0 | Bedstraw plant response rating (0 to 10 scale) (bedstraw; Rate 250 g/ha): 0 | Bedstraw plant response rating (bedstraw; [1]): 0 | Blackgrass plant response rating (blackgrass; [2]): 0 | Blackgrass plant response rating (blackgrass; [3]): 0 | Plant response rating, Blackgrass (blackgrass; [4]): 3 | Blackgrass plant response rating (blackgrass; [5]): 2 | Blackgrass plant response rating (blackgrass; [6]): 6 | Blackgrass plant response rating (0 to 10 scale) (blackgrass; Preemergence, Rate 250 g/ha): 7 | Blackgrass plant response rating (blackgrass; [7]): 2 | Plant response rating, Blackgrass (blackgrass; [8]): 0 | B. signalgrass plant response rating (surinam grass; [2]): 0 | B. signalgrass plant response rating (surinam grass; [3]): 0 | Plant response rating, B. signalgrass (surinam grass; Postemergence, Rate 500 g/ha): 3 | B. signalgrass plant response rating (surinam grass; [5]): 6 | B. signalgrass plant response rating (surinam grass; [6]): 9 | B. signalgrass plant response rating (0 to 10 scale, 0 is no effect, 10 is complete control) (surinam grass; Preemergence, Rate 250 g/ha): 10 | Plant response rating, B. signalgrass (surinam grass; Rate 250 g/ha, Postemergence): 0 | Cocklebur plant response rating (cocklebur; [2]): 0 | Cocklebur plant response rating (cocklebur; [3]): 0 | Plant response rating, Cocklebur (cocklebur; [4]): 2 | Cocklebur plant response rating (cocklebur; [5]): 0 | Cocklebur plant response rating (cocklebur; [6]): 0 | Cocklebur plant response rating (0 to 10 scale) (cocklebur; Preemergence, Rate 250 g/ha): 0 | Cocklebur plant response rating (cocklebur; [7]): 0 | Plant response rating, Cocklebur (cocklebur; [8]): 0 | Corn plant response rating (corn; [2]): 0 | Corn plant response rating (corn; [3]): 0 | Plant response rating, Corn (corn; [4]): 0 | Corn plant response rating (corn; [5]): 0 | Corn plant response rating (corn; [6]): 0 | Corn plant response rating (0 to 10 scale) (corn; Preemergence, Rate 250 g/ha): 0 | Corn plant response rating (corn; [7]): 3 | Plant response rating, Corn (corn; [8]): 0 | Crabgrass plant response rating (crabgrass; [2]): 0 | Crabgrass plant response rating (crabgrass; [3]): 2 | Plant response rating, Crabgrass (crabgrass; [4]): 9 | Crabgrass plant response rating (crabgrass; [5]): 8 | Crabgrass plant response rating (crabgrass; [6]): 9 | Crabgrass plant response rating (0 to 10 scale) (crabgrass; Preemergence, Rate 250 g/ha): 9 | Crabgrass plant response rating (crabgrass; [7]): 9 | Plant response rating, Crabgrass (crabgrass; [8]): 9 | Giant foxtail plant response rating (giant foxtail; [3]): 2 | Giant foxtail plant response rating (giant foxtail; [5]): 8 | Giant foxtail plant response rating (giant foxtail; [6]): 10 | Giant foxtail plant response rating (0 to 10 scale) (giant foxtail; Preemergence, Rate 250 g/ha): 10 | Giant foxtail plant response rating (giant foxtail; [7]): 10 | Plant response rating, Giant foxtail (giant foxtail; [8]): 8 | Morningglory plant response rating (morningglory; [2]): 4 | Morningglory plant response rating (morningglory; [3]): 6 | Plant response rating, Morningglory (morningglory; [4]): 10 | Morningglory plant response rating (morningglory; [5]): 0 | Morningglory plant response rating (morningglory; [6]): 0 | Morningglory plant response rating (0 to 10 scale) (morningglory; Preemergence, Rate 250 g/ha): 0 | Morningglory plant response rating (morningglory; [7]): 2 | Plant response rating, Morningglory (morningglory; [8]): 9 | Plant response rating, Redroot pigweed (pigweed; [1]): 7 | Redroot pigweed plant response rating (pigweed; [5]): 9 | Redroot pigweed plant response rating (pigweed; [6]): 9 | Redroot pigweed plant response rating (0 to 10 scale) (pigweed; Preemergence, Rate 250 g/ha): 10 | Redroot pigweed plant response rating (pigweed; [7]): 10 | Plant response rating, Redroot pigweed (pigweed; [9]): 4 | Rape plant response rating (rape; [2]): 0 | Rape plant response rating (rape; [3]): 0 | Plant response rating, Rape (rape; [4]): 3 | Rape plant response rating (rape; [5]): 0 | Rape plant response rating (rape; [6]): 2 | Rape plant response rating (0 to 10 scale) (rape; Preemergence, Rate 250 g/ha): 2 | Rape plant response rating (rape; [7]): 2 | Plant response rating, Rape (rape; [8]): 3 | Plant response rating, Soybean (soybean; [1]): 6 | Soybean plant response rating (soybean; [5]): 0 | Soybean plant response rating (soybean; [6]): 0 | Soybean plant response rating (0 to 10 scale) (soybean; Preemergence, Rate 250 g/ha): 0 | Soybean plant response rating (soybean; [7]): 0 | Plant response rating, Soybean (soybean; [9]): 5 | Plant response rating, Sugarbeets (sugar beet; [4]): 2 | Sugarbeets plant response rating (sugar beet; [5]): 0 | Sugarbeets plant response rating (sugar beet; [6]): 0 | Sugarbeets plant response rating (0 to 10 scale) (sugar beet; Preemergence, Rate 250 g/ha): 0 | Sugarbeets plant response rating (sugar beet; [7]): 2 | Plant response rating, Velvetleaf (velvetleaf; [1]): 3 | Velvetleaf plant response rating (velvetleaf; [5]): 0 | Velvetleaf plant response rating (velvetleaf; [6]): 0 | Velvetleaf plant response rating (0 to 10 scale) (velvetleaf; Preemergence, Rate 250 g/ha): 0 | Velvetleaf plant response rating (velvetleaf; [7]): 2 | Plant response rating, Velvetleaf (velvetleaf; [9]): 2 | Plant response rating, Wheat (wheat; [1]): 2 | Wheat plant response rating (wheat; [5]): 0 | Wheat plant response rating (wheat; [6]): 0 | Wheat plant response rating (0 to 10 scale) (wheat; Preemergence, Rate 250 g/ha): 0 | Wheat plant response rating (wheat; [7]): 0 | Plant response rating, Wheat (wheat; [9]): 0 | Plant response rating, Wild oats (wild oat; [1]): 0 | Wild oats plant response rating (wild oat; [5]): 0 | Wild oats plant response rating (wild oat; [6]): 0 | Wild oats plant response rating (0 to 10 scale) (wild oat; Preemergence, Rate 250 g/ha): 2 | Wild oats plant response rating (wild oat; [7]): 2 | Plant response rating, Wild oats (wild oat; [9]): 0 | Nutsedge plant response rating (purple nutsedge; Postemergence): 0 | Nutsedge plant response rating (purple nutsedge; Preemergence): 0 | Nutsedge plant response rating (0 to 10 scale) (purple nutsedge; Preemergence, Rate 250 g/ha): 0 | Plant response rating, Nutsedge (purple nutsedge; [8]): 0
